Results from US10544130B2, “Metallo-beta-lactamase inhibitors” (priority 2015, dated 2020).

Legend:
[1] = test system: Escherichia coli expressing NDM-1 (CLB30005, CLB30016); assay type: cell-based; details: with imipenem 1 μg/ml; 95% inhibition of bacterial growth
Summary of the method: (§1)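 Clinical strains were grown overnight at 35 °C on blood agar, adjusted to set OD600 in saline and diluted 1:100 into 1.1× CAMHB. Inhibitor was tested with and without imipenem at 1 μg/ml. After 22–24 h at 35 °C, absorbance was read to give synergistic concentration.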

[2] = test system: Klebsiella pneumoniae expressing VIM-1 (IHMA599644); assay type: cell-based; details: with imipenem 1 μg/ml; 95% inhibition of bacterial growth
Summary of the method: as §1

[3] = test system: Serratia marcescens expressing IMP-1 (CL5741); assay type: cell-based; details: with imipenem 1 μg/ml; 95% inhibition of bacterial growth
Summary of the method: as §1

[4] = test system: Pseudomonas aeruginosa PAO1 MB9798 (efflux+, IMP-1); details: ratio MITC95 PA 9798/MITC95 PA 9799; imipenem at 2 μg/mL
Summary of the method: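 Isogenic PAO1 pair (efflux+ MB9798, efflux− MB9799, both IMP-1) tested by microbroth MIC with fixed imipenem and/or ceftazidime, usually at CLSI breakpoint, plus fixed class A/C inhibitor against AmpC. MBL inhibitor titrated; concentration restoring susceptibility recorded and fold difference between strains taken as efflux extent.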

SMILES | Escherichia coli (NDM-1) MITC95 [1] | Klebsiella pneumoniae (VIM-1) MITC95 [2] | Serratia marcescens (IMP-1) MITC95 [3] | Efflux ratio [4]
NCCNS(=O)(=O)c1ccc(-c2cccc(NC[C@H](O)CN)c2)c(-c2nn[nH]n2)c1S(N)(=O)=O [Example 351, (R)-3′-((3-amino-2-hydroxypropyl)amino)-N4-(2-aminoethyl)-2-(2H-tetrazol-5-yl)-[1,1′-biphenyl]-3,4-disulfonamide] | 0.7813 µM | 1.563 µM | 1.563 µM | 2.00
Cc1ccc(-c2ccc(S(=O)(=O)NCCN)c(S(N)(=O)=O)c2-c2nn[nH]n2)c2nc(N)[nH]c12 [Example 329, 4-(2-Amino-7-methyl-1H-benzo[d]imidazol-4-yl)-N1-(2-aminoethyl)-3-(2H-tetrazol-5-yl)benzene-1,2-disulfonamide] | 1.563 µM | 1.563 µM | 1.563 µM | 2.00
NC[C@@H](CO)NS(=O)(=O)c1ccc(-c2cccc(N)n2)c(-c2nn[nH]n2)c1S(N)(=O)=O [Example 382, (S)—N1-(1-amino-3-hydroxypropan-2-yl)-4-(6-aminopyridin-2-yl)-3-(2H-tetrazol-5-yl)benzene-1,2-disulfonamide] | 1.563 µM | 3.125 µM | 1.563 µM | 1.00
Cn1nc2cccc(-c3ccc(S(=O)(=O)N[C@@H]4CCNC4)c(S(N)(=O)=O)c3-c3nn[nH]n3)c2n1 [Example 281, (R)-4-(2-methyl-2H-benzo[d][1,2,3]triazol-4-yl)-N1-(pyrrolidin-3-yl)-3-(2H-tetrazol-5-yl)benzene-1,2-disulfonamide] | 1.563 µM | 3.125 µM | 1.563 µM | 2.00
NCCNS(=O)(=O)c1ccc(-c2cccc(NC[C@@H](O)CN)c2)c(-c2nn[nH]n2)c1S(N)(=O)=O [Example 352, (S)-3′-((3-amino-2-hydroxypropyl)amino)-N4-(2-aminoethyl)-2-(2H-tetrazol-5-yl)-[1,1′-biphenyl]-3,4-disulfonamide] | 0.7813 µM | 1.563 µM | 1.563 µM | 2.00
NCCNS(=O)(=O)c1ccc(-c2cccc3[nH]c([C@H](N)CN)nc23)c(-c2nn[nH]n2)c1S(N)(=O)=O [Example 335, (R)—N1-(2-aminoethyl)-4-(2-(1,2-diaminoethyl)-1H-benzo[d]imidazole-4-yl)-3-(2H-tetrazol-5-yl)benzene-1,2-disulfonamide] | 1.563 µM | 3.125 µM | 3.125 µM | 2.00
NCCNS(=O)(=O)c1ccc(-c2cccc(SC[C@H](O)CN)c2)c(-c2nn[nH]n2)c1S(N)(=O)=O [Example 356, (R)-3′-((3-amino-2-hydroxypropyl)thio)-N4-(2-aminoethyl)-2-(2H-tetrazol-5-yl)-[1,1′-biphenyl]-3,4-disulfonamide] | 0.7813 µM | 0.7813 µM | 0.7813 µM | 2.00
NCCNS(=O)(=O)c1ccc(-c2cccc3[nH]c(CN)nc23)c(-c2nn[nH]n2)c1S(N)(=O)=O [Example 343] | 0.7813 µM | 0.7813 µM | 0.7813 µM | 1.00
CN([C@H]1CCNC1)S(=O)(=O)c1ccc(-c2cccc3[nH]c(N)nc23)c(-c2nn[nH]n2)c1S(N)(=O)=O [Example 244, (S)-4-(2-amino-1H-benzo[d]imidazol-7-yl)-N1-methyl-N1-(pyrrolidin-3-yl)-3-(1H-tetrazol-5-yl)benzene-1,2-disulfonamide] | 0.7813 µM | 1.563 µM | 1.563 µM | 2.00
NCCNS(=O)(=O)c1ccc(-c2cccc3[nH]c(CCN)nc23)c(-c2nn[nH]n2)c1S(N)(=O)=O [Example 337, N1-(2-aminoethyl)-4-(2-(2-aminoethyl)-1H-benzo[d]imidazol-4-yl)-3-(2H-tetrazol-5-yl)benzene-1,2-disulfonamide] | 0.7813 µM | 0.7813 µM | 0.7813 µM | 2.00
NCc1ncc(-c2cccc(-c3ccc(S(=O)(=O)N[C@@H]4CCNC4)c(S(N)(=O)=O)c3-c3nn[nH]n3)c2)[nH]1 [Example 278, (R)-3′-(2-(aminomethyl)-1H-imidazol-5-yl)-N4-(pyrrolidin-3-yl)-2-(2H-tetrazol-5-yl)-[1,1′-biphenyl]-3,4-disulfonamide] | 0.7813 µM | 0.7813 µM | 0.7813 µM | 1.00
NCCNS(=O)(=O)c1ccc(-c2cccc(NC[C@@H](N)CO)c2)c(-c2nn[nH]n2)c1S(N)(=O)=O [Example 349, (R)-3′-((2-amino-3-hydroxypropyl)amino)-N4-(2-aminoethyl)-2-(2H-tetrazol-5-yl)-[1,1′-biphenyl]-3,4-disulfonamide] | 1.563 µM | 1.563 µM | 1.563 µM | 2.00
NCCNS(=O)(=O)c1ccc(C2=CC(N)CCC2)c(-c2nn[nH]n2)c1S(N)(=O)=O (stereo not shown) [Example 338, 5′-Amino-N4-(2-aminoethyl)-2-(2H-tetrazol-5-yl)-2′,3′,4′,5′-tetrahydro-[1,1′-biphenyl]-3,4-disulfonamide] | 1.563 µM | 1.563 µM | 1.563 µM | 4.00
Nc1cc(-c2ccc(S(=O)(=O)N[C@@H]3CCNC3)c(S(N)(=O)=O)c2-c2nn[nH]n2)ccn1 [Example 288, (R)-4-(2-aminopyridin-4-yl)-N1-(pyrrolidin-3-yl)-3-(2H-tetrazol-5-yl)benzene-1,2-disulfonamide] | 0.7813 µM | 1.563 µM | 1.563 µM | 2.00
NCc1nc2c(-c3ccc(S(=O)(=O)N[C@@H](CN)CO)c(S(N)(=O)=O)c3-c3nn[nH]n3)cccc2[nH]1 [Example 379, (S)—N^1-(1-amino-3-hydroxypropan-2-yl)-4-(2-(aminomethyl)-1H-benzo[d]imidazol-4-yl)-3-(2H-tetrazol-5-yl)benzene-1,2-disulfonamide] | 1.563 µM | 1.563 µM | 1.563 µM | 2.00
NCCNS(=O)(=O)c1ccc(-c2cccc(C(=O)NC[C@H](O)CN)c2)c(-c2nn[nH]n2)c1S(N)(=O)=O [Example 346, (R)—N-(3-amino-2-hydroxypropyl)-4′-(N-(2-aminoethyl)sulfamoyl)-3′-sulfamoyl-2′-(2H-tetrazol-5-yl)-[1,1′-biphenyl]-3-carboxamide] | 1.563 µM | 1.563 µM | 1.563 µM | 2.00
